Reference: paper PMC9320749, “Synthesis, Molecular Docking Study, and Cytotoxic Activity against MCF Cells of New Thiazole–Thiophene Scaffolds” (Molecules, 2022)
Like-named read-outs stand apart in the source and are kept apart here.

Tests used:
[1] = in vitro; conditions: rhesus monkey
[2] = tested on: MCF-7; experiment: cells; conditions: Homo sapiens, MCF7, 72 h, read-out: IC50 (μM) MCF-7, MCF-7 breast carcinoma cells; mean of three independent experiments; 72 h incubation
Protocol: (§1) The results were used to plot a dose–response curve, from which the concentrations of the tested samples required to kill half of the cell population (IC50) were determined. In addition, cytotoxic activities were expressed as the mean IC50 calculated from three independent experiments.
(§2) The cytotoxic potentials of the newly synthesized compounds was carried out at the Regional Center for Mycology and Biotechnology at Al-Azhar University, Cairo, Egypt. Cells were purchased from the Egyptian Holding Company for Biological Products and Vaccines (VACSERA, Giza, Egypt) and kept in a tissue culture unit. Cells were grown in Roswell Park Memorial Institute (RPMI)-1640 medium supplemented with 10% heat-inactivated fetal bovine serum (FBS), 50 units/mL penicillin, and 50 mg/mL streptomycin, and maintained in a humidified atmosphere containing 5% CO2 [11, 25]. Cells were maintained as monolayer cultures using serial subculture. Cell culture reagents were obtained from Lonza (Basel, Switzerland). The anticancer activities of the rest of the compounds were evaluated in MCF-7 (breast cancer) cells. In addition, the sulforhodamine B (SRB) assay method, as described previously in [39, 40], was used to determine cytotoxicity. Exponentially growing cells were collected using 0.25% trypsin–EDTA and seeded in 96-well plates at 1000–2000 cells/well in RBMI-1640 supplemented medium. After 24 h, cells were incubated for 72 h with various concentrations of the compounds tested. Following 72 h of incubation, the cells were fixed with 10% trichloroacetic acid for 1 h at 4 °C. Wells were stained for 10 min at room temperature with 0.4% sulforhodamine B (SRBC) dissolved in 1% acetic acid. Plates were air-dried for 24 h, and the dye was solubilized with Tris–HCl for 5 min on a shaker at 1600 rpm. The optical density (OD) of each well was measured spectrophotometrically at 564 nm using an ELISA microplate reader (ChroMate-4300, Palm City, FL, USA). IC50 values were calculated using a Boltzmann sigmoidal concentration–response curve using non-linear regression fitting models (Graph Pad, Prism Version 9, GraphPad Software, San Diego, CA, USA).

[3] = tested on: MCF-7; conditions: for IC50: read-out: IC50 (μM) MCF-7, MCF-7 breast carcinoma cells, mean of three independent experiments, 72 h incubation
Protocol: as §1, §2

IC50 [2] [µM]	melting point [°C]	IC50 [3] [µM]	Structure (SMILES)	CC50 at 72 h [1] [µM]	SI Values (CC50/IC50) [3]
16.3 ± 1	–	–	C/C(=N\N=c1/sc(/N=N/c2ccccc2)c(C)n1N)c1cccs1 [4a]	183 ± 21.3	11.23
> 38	180 to 182	38.2 ± 1.4	C/C(=N\N=c1/scc(-c2ccc(Cl)cc2)n1N)c1cccs1 [11c]	–	–
19.8 ± 0.9	227 to 229	–	C/C(=N\N=c1/sc(/N=N/c2ccc(Cl)cc2Cl)c(C)n1N)c1cccs1 [4d]	–	–
21 ± 0.7	166 to 168	–	C/C(=N\N=c1/scc(-c2ccccc2)n1N)c1cccs1 [11a]	–	–
11.5 ± 0.8	–	–	CC(=O)c1sc(=NN=C(C)c2cccs2)n(N)c1C [13a, 1-[3-Amino-4-methyl-2-((1-(thiophen-2-yl)ethylidene)hydrazineylidene]-2,3-dihydrothiazol-5-yl)ethan-1-one]	163 ± 19.1	14.14
19.7 ± 1.3	205 to 207	–	C/C(=N\N=c1/sc(/N=N/c2ccc(Cl)cc2)c(C)n1N)c1cccs1 [4c]	–	–
23.7 ± 1.6	177 to 179	–	CC(=NN=C1SC(=NNc2ccc(Cl)cc2)C(=O)N1N)c1cccs1 [8b, 3-Amino-5-(2-(4-chlorophenyl)hydrazineylidene)-2-[(1-(thiophen-2-yl)ethylidene) hydrazineylidene]thiazolidin-4-one]	–	–
16.3 ± 1.4	–	–	CCOC(=O)c1s/c(=N\N=C(/C)c2cccs2)n(N)c1C [13b]	135 ± 9.58	8.29
17.9 ± 0.8	–	–	C/C(=N\N=c1/scc(-c2ccc(C)cc2)n1N)c1cccs1 [11b]	231 ± 25	12.93
> 38	194 to 196	54.8 ± 1.6	C/C(=N\N=c1/scc(-c2ccc([N+](=O)[O-])cc2)n1N)c1cccs1 [11d]	–	–
13.6 ± 0.9	–	–	CC(=NN=C1SC(=NNc2ccc(C)cc2)C(=O)N1N)c1cccs1 [8a, 3-Amino-2-[(1-(thiophen-2-yl)ethylidene)hydrazineylidene]-5-(2-(p-tolyl)hydrazineylidene) thiazolidin-4-one]	149 ± 15.9	10.99
10.2 ± 0.8	–	–	C/C(=N\N=c1/sc(/N=N/c2ccc(C)cc2)c(C)n1N)c1cccs1 [4b]	176 ± 18.2	–

Structure (SMILES)	IC50 [2] [µM]	melting point [°C]	IC50 [3] [µM]	CC50 at 72 h [1] [µM]	SI Values (CC50/IC50) [3]
N.N.[Cl][Pt][Cl] [Cisplatin, cisplatin, reference compound]	–	–	13.3 ± 0.61	–	–
